# Measured values as given in ChEMBL document CHEMBL4184095, “Identification of novel small-molecule inhibitors of Zika virus infection” (Bioorg Med Chem Lett, 2018).
# Tested on: not listed separately
# Test: Cytotoxicity against human A549 cells assessed as cell viability at 10 uM by MTT assay relative to control
# Format: cell-based
# Settings: read-out: Activity
row,Compound,viability at 10 µM [%]
1,COc1ccc(CCCn2ncc3c2nc(N)n2nc(-c4ccco4)nc32)cc1,77.2
2,C=CCSc1nsc(NC(=O)Nc2cccc(C(C)=O)c2)n1,96.7
3,O=C(Nc1nc(SCCOc2ccccc2)ns1)Nc1ccc(F)cc1F,95.5
4,O[C@H]1CC[C@H](Nc2nc(-c3ccccc3)nc3[nH]ccc23)CC1,98.5
5,C#CCSc1nsc(NC(=O)Nc2ccccc2Cl)n1,89.9
6,C=CCSc1nsc(NC(=O)Nc2ccc(Cl)cc2)n1,51.2
7,COc1ccc(C2CNC(=O)NC2)cc1O[C@@H]1C[C@H]2CC[C@H]1C2,94.3
8,C=CCSc1nsc(NC(=O)Nc2ccc(F)cc2F)n1,90.2
9,C#CCSc1nsc(NC(=O)Nc2ccc(Cl)c(C(F)(F)F)c2)n1,74.1
10,C=CCSc1nsc(NC(=O)Nc2ccc(Cl)cc2C(F)(F)F)n1,95.8
11,O=S(=O)(c1c(F)c(F)c(F)c(F)c1F)N1CCN(c2ccccc2)CC1,77
12,CCCn1c(=O)[nH]c2nc(-c3ccc(S(=O)(=O)N4CCN(c5ccc(Cl)cc5)CC4)cc3)[nH]c2c1=O,86.5
13,COc1ccc([C@@H]2CNC(=O)C2)cc1OC1CCCC1 [(-)-ROLIPRAM],92.5
14,CCCOc1cc([C@]2(C)CNC(=O)O2)ccc1OC [DAXALIPRAM],95.3
15,CN1CCCC1=O [METHYLPYRROLIDONE],99.4
16,COCCOc1ccc(N2CCN(CCn3ncc4c3nc(N)n3nc(-c5ccco5)nc43)CC2)cc1 [PRELADENANT],57
17,COc1ccc(C2CNC(=O)C2)cc1OC1CCCC1 (stereo not drawn) [ROLIPRAM],101
18,COc1ccc([C@H]2CNC(=O)C2)cc1OC1CCCC1 [S-ROLIPRAM],97
19,Nc1nc(NCCc2ccc(O)cc2)nc2nc(-c3ccco3)nn12 [ZM-241385],77.8

# Tested on: not listed separately
# Test: Cytotoxicity against human A549 cells assessed as cell viability at 100 uM by MTT assay relative to control
# Format: cell-based
# Settings: read-out: Activity
row,Compound,viability at 100 µM [%]
1,COc1ccc(CCCn2ncc3c2nc(N)n2nc(-c4ccco4)nc32)cc1,41.6
2,C=CCSc1nsc(NC(=O)Nc2cccc(C(C)=O)c2)n1,21.6
3,O=C(Nc1nc(SCCOc2ccccc2)ns1)Nc1ccc(F)cc1F,27.3
4,O[C@H]1CC[C@H](Nc2nc(-c3ccccc3)nc3[nH]ccc23)CC1,41.7
5,C#CCSc1nsc(NC(=O)Nc2ccccc2Cl)n1,21.4
6,C=CCSc1nsc(NC(=O)Nc2ccc(Cl)cc2)n1,15.1
7,COc1ccc(C2CNC(=O)NC2)cc1O[C@@H]1C[C@H]2CC[C@H]1C2,43.3
8,C=CCSc1nsc(NC(=O)Nc2ccc(F)cc2F)n1,31.3
9,C#CCSc1nsc(NC(=O)Nc2ccc(Cl)c(C(F)(F)F)c2)n1,18
10,C=CCSc1nsc(NC(=O)Nc2ccc(Cl)cc2C(F)(F)F)n1,43.1
11,O=S(=O)(c1c(F)c(F)c(F)c(F)c1F)N1CCN(c2ccccc2)CC1,35
12,CCCn1c(=O)[nH]c2nc(-c3ccc(S(=O)(=O)N4CCN(c5ccc(Cl)cc5)CC4)cc3)[nH]c2c1=O,35.8
13,COc1ccc([C@@H]2CNC(=O)C2)cc1OC1CCCC1 [(-)-ROLIPRAM],39.1
14,CCCOc1cc([C@]2(C)CNC(=O)O2)ccc1OC [DAXALIPRAM],41.8
15,CN1CCCC1=O [METHYLPYRROLIDONE],39.3
16,COCCOc1ccc(N2CCN(CCn3ncc4c3nc(N)n3nc(-c5ccco5)nc43)CC2)cc1 [PRELADENANT],27.9
17,COc1ccc(C2CNC(=O)C2)cc1OC1CCCC1 (stereo not drawn) [ROLIPRAM],43.4
18,COc1ccc([C@H]2CNC(=O)C2)cc1OC1CCCC1 [S-ROLIPRAM],40.9
19,Nc1nc(NCCc2ccc(O)cc2)nc2nc(-c3ccco3)nn12 [ZM-241385],32.6

# Tested on: Zika virus
# Test: Antiviral activity against Zika virus infected in human A549 cells assessed as virus titer preincubated for 5 hrs followed by compound wash measured after 48 hrs by viral plague-forming assay
# Format: functional
# Settings: not given
row,Compound,Activity [log10PFU/ml]
1,C=CCSc1nsc(NC(=O)Nc2cccc(C(C)=O)c2)n1,7
2,O=S(=O)(c1c(F)c(F)c(F)c(F)c1F)N1CCN(c2ccccc2)CC1,7
3,COCCOc1ccc(N2CCN(CCn3ncc4c3nc(N)n3nc(-c5ccco5)nc43)CC2)cc1 [PRELADENANT],7
4,COc1ccc(C2CNC(=O)C2)cc1OC1CCCC1 (stereo not drawn) [ROLIPRAM],7

# Tested on: not listed separately
# Test: Cytotoxicity against human A549 cells assessed as cell viability at 1 uM by MTT assay relative to control
# Format: cell-based
# Settings: read-out: Activity
row,Compound,viability at 1 µM [%]
1,COc1ccc(CCCn2ncc3c2nc(N)n2nc(-c4ccco4)nc32)cc1,106
2,C=CCSc1nsc(NC(=O)Nc2cccc(C(C)=O)c2)n1,105
3,O=C(Nc1nc(SCCOc2ccccc2)ns1)Nc1ccc(F)cc1F,102
4,O[C@H]1CC[C@H](Nc2nc(-c3ccccc3)nc3[nH]ccc23)CC1,111
5,C#CCSc1nsc(NC(=O)Nc2ccccc2Cl)n1,96.2
6,C=CCSc1nsc(NC(=O)Nc2ccc(Cl)cc2)n1,98.1
7,COc1ccc(C2CNC(=O)NC2)cc1O[C@@H]1C[C@H]2CC[C@H]1C2,104
8,C=CCSc1nsc(NC(=O)Nc2ccc(F)cc2F)n1,100
9,C#CCSc1nsc(NC(=O)Nc2ccc(Cl)c(C(F)(F)F)c2)n1,97.8
10,C=CCSc1nsc(NC(=O)Nc2ccc(Cl)cc2C(F)(F)F)n1,104
11,O=S(=O)(c1c(F)c(F)c(F)c(F)c1F)N1CCN(c2ccccc2)CC1,103
12,CCCn1c(=O)[nH]c2nc(-c3ccc(S(=O)(=O)N4CCN(c5ccc(Cl)cc5)CC4)cc3)[nH]c2c1=O,97.4
13,COc1ccc([C@@H]2CNC(=O)C2)cc1OC1CCCC1 [(-)-ROLIPRAM],97.1
14,CCCOc1cc([C@]2(C)CNC(=O)O2)ccc1OC [DAXALIPRAM],106
15,CN1CCCC1=O [METHYLPYRROLIDONE],102
16,COCCOc1ccc(N2CCN(CCn3ncc4c3nc(N)n3nc(-c5ccco5)nc43)CC2)cc1 [PRELADENANT],104
17,COc1ccc(C2CNC(=O)C2)cc1OC1CCCC1 (stereo not drawn) [ROLIPRAM],114
18,COc1ccc([C@H]2CNC(=O)C2)cc1OC1CCCC1 [S-ROLIPRAM],105
19,Nc1nc(NCCc2ccc(O)cc2)nc2nc(-c3ccco3)nn12 [ZM-241385],110

# Tested on: Zika virus
# Test: Antiviral activity against Zika virus infected in human A549 cells preincubated for 5 hrs followed by compound wash measured after 48 hrs by viral plague-forming assay
# Format: functional, organism-based
# Settings: not given
row,Compound,IC50 [nM]
1,COc1ccc(CCCn2ncc3c2nc(N)n2nc(-c4ccco4)nc32)cc1,3060
2,C=CCSc1nsc(NC(=O)Nc2cccc(C(C)=O)c2)n1,160
3,O=C(Nc1nc(SCCOc2ccccc2)ns1)Nc1ccc(F)cc1F,4940
4,O[C@H]1CC[C@H](Nc2nc(-c3ccccc3)nc3[nH]ccc23)CC1,58.6
5,C#CCSc1nsc(NC(=O)Nc2ccccc2Cl)n1,1680
6,C=CCSc1nsc(NC(=O)Nc2ccc(Cl)cc2)n1,0.189
7,COc1ccc(C2CNC(=O)NC2)cc1O[C@@H]1C[C@H]2CC[C@H]1C2,182
8,C=CCSc1nsc(NC(=O)Nc2ccc(F)cc2F)n1,4480
9,C#CCSc1nsc(NC(=O)Nc2ccc(Cl)c(C(F)(F)F)c2)n1,26.9
10,C=CCSc1nsc(NC(=O)Nc2ccc(Cl)cc2C(F)(F)F)n1,0.318
11,O=S(=O)(c1c(F)c(F)c(F)c(F)c1F)N1CCN(c2ccccc2)CC1,0.87
12,CCCn1c(=O)[nH]c2nc(-c3ccc(S(=O)(=O)N4CCN(c5ccc(Cl)cc5)CC4)cc3)[nH]c2c1=O,43.8
13,COc1ccc([C@@H]2CNC(=O)C2)cc1OC1CCCC1 [(-)-ROLIPRAM],77.6
14,CCCOc1cc([C@]2(C)CNC(=O)O2)ccc1OC [DAXALIPRAM],769
15,COCCOc1ccc(N2CCN(CCn3ncc4c3nc(N)n3nc(-c5ccco5)nc43)CC2)cc1 [PRELADENANT],136
16,COc1ccc(C2CNC(=O)C2)cc1OC1CCCC1 (stereo not drawn) [ROLIPRAM],44.6
17,COc1ccc([C@H]2CNC(=O)C2)cc1OC1CCCC1 [S-ROLIPRAM],25.8
18,Nc1nc(NCCc2ccc(O)cc2)nc2nc(-c3ccco3)nn12 [ZM-241385],1070

# Tested on: not listed separately
# Test: Cytotoxicity against human A549 cells assessed as cell viability at 0.1 uM by MTT assay relative to control
# Format: cell-based
# Settings: read-out: Activity
row,Compound,viability at 0.1 µM [%]
1,COc1ccc(CCCn2ncc3c2nc(N)n2nc(-c4ccco4)nc32)cc1,94.7
2,C=CCSc1nsc(NC(=O)Nc2cccc(C(C)=O)c2)n1,104
3,O=C(Nc1nc(SCCOc2ccccc2)ns1)Nc1ccc(F)cc1F,96.2
4,O[C@H]1CC[C@H](Nc2nc(-c3ccccc3)nc3[nH]ccc23)CC1,106
5,C#CCSc1nsc(NC(=O)Nc2ccccc2Cl)n1,98.1
6,C=CCSc1nsc(NC(=O)Nc2ccc(Cl)cc2)n1,100
7,COc1ccc(C2CNC(=O)NC2)cc1O[C@@H]1C[C@H]2CC[C@H]1C2,96.6
8,C=CCSc1nsc(NC(=O)Nc2ccc(F)cc2F)n1,100
9,C#CCSc1nsc(NC(=O)Nc2ccc(Cl)c(C(F)(F)F)c2)n1,99.8
10,C=CCSc1nsc(NC(=O)Nc2ccc(Cl)cc2C(F)(F)F)n1,102
11,O=S(=O)(c1c(F)c(F)c(F)c(F)c1F)N1CCN(c2ccccc2)CC1,93.1
12,CCCn1c(=O)[nH]c2nc(-c3ccc(S(=O)(=O)N4CCN(c5ccc(Cl)cc5)CC4)cc3)[nH]c2c1=O,97.7
13,COc1ccc([C@@H]2CNC(=O)C2)cc1OC1CCCC1 [(-)-ROLIPRAM],95.7
14,CCCOc1cc([C@]2(C)CNC(=O)O2)ccc1OC [DAXALIPRAM],101
15,CN1CCCC1=O [METHYLPYRROLIDONE],98.6
16,COCCOc1ccc(N2CCN(CCn3ncc4c3nc(N)n3nc(-c5ccco5)nc43)CC2)cc1 [PRELADENANT],109
17,COc1ccc(C2CNC(=O)C2)cc1OC1CCCC1 (stereo not drawn) [ROLIPRAM],107
18,COc1ccc([C@H]2CNC(=O)C2)cc1OC1CCCC1 [S-ROLIPRAM],96.5
19,Nc1nc(NCCc2ccc(O)cc2)nc2nc(-c3ccco3)nn12 [ZM-241385],107
